Reference: patent US4946855A, “Carboxamide derivatives having tetrazole and thiazole rings and their use” (Sawai Pharmaceutical Co., Ltd., priority 1987, dated 1990)

test system: 48-Hours PCA (passive cutaneous anaphylaxis); assay: Test Example 3: Anti-passive cutaneous anaphylaxis (PCA) activity in rats, 48-Hours PCA (Ic compounds); type: in vivo, rat (Wistar strain male); conditions: 30 mg/kg, P.O., 1 hour before the elicitation
Method: (§1) Anti-passive cutaneous anaphylaxis (PCA) activity in rats (Materials and Method)
(§2) Wistar strain male rats (6 weeks old) were purchased from Shizuoka Experimental Animal Agricultural Cooperative (Japan), habituated to a breeding environment for 1 week before using for the experiment.
(§3) (2) Preparation of antiserum
(§4) Preparation of antiserum was carried out according to the method described in J. Immunol. 106, 1002-1011 (1971).
(§5) Thus, Ascaris suum extract was dinitrophenylated (DNP-As) and infused subcutaneously together with dead Bordetella pertussis at four sites on the foot-pad of the Wistar strain male rats. After 5 days, the rats were boostered with DNP-As (1 mg) at the dorsal muscle for additional sensitization. After 3 days, blood samples were collected and serum was separated which was used as anti DNP-As antiserum. The titer of the antiserum was measured by rats 48-hours PCA and found to be 1:200.
Rats were sensitized with 35 times dilution of anti DNA-As antiserum administered at two sites in the pre-clipped right dorsal skin. After 48 hours, DNP-As (500 μg in 0.5% Evans blue-physiological saline (1 ml) was administered into caudal vein to elicit the reaction. Then, 30 minutes later, the animals were decapitated, the dorsal skin was peeled, two sensitized areas as well as one control area were cut off and analyzed for Evans blue exudation which was used as an indivative of the reaction according to the method disclosed in Microbiol. Immunol. 22, 89-101 (1978). Thus, cut skins were treated with […] incubated at 37° C. for 16 hours to dissolve the skin tissue. A mixed solution (9 ml) of 0.6 N-phosphoric acid-acetone (5: 13) was added and the mixture was centrifuged (300 r.p.m.) for 15 minutes. The supernatant was assayed for absorption at 620 nm and the exudation of Evans blue was determined. Test compounds (I) of the present invention were administered perorally as a suspension in 0.5% tragacanth 1 hour before the elicitation.

First: Cc1ccc(-c2nc(C)c(NC(=O)c3nnn[nH]3)s2)cc1 [Ic-13, N-(4-methyl-2-(4-methylphenyl)-5-thiazolyl)-1H-tetrazole-5-carboxamide]
Second: COc1ccc(-c2nc(C)c(NC(=O)c3nnn[nH]3)s2)cc1 [Ic-14, N-(2-(4-Methoxyphenyl)-4-methyl-5-thiazolyl)-1H-tetrazole-5-carboxamide]
The “Inhibition (%)” value of the first is higher: 52% for the first, 50% for the second.

Going from `Cc1ccc(-c2nc(C)c(C(=O)Nc3nnn[nH]3)s2)cc1` [Ic-5, 4-methyl-2-(4-methylphenyl)-N-(1H-tetrazole-5-yl)-5-thiazolecarboxamide] to `COc1ccc(-c2nc(C)c(C(=O)Nc3nnn[nH]3)s2)cc1` [Ic-6, 2-(4-Methoxyphenyl)-4-methyl-N-(1H-tetrazole-5-yl)-5-thiazolecarboxamide], the “Inhibition (%)” value rises from 49% to 56%.

same assay, conditions: 50 mg/kg, P.O., 1 hour before the elicitation

In the case of `COc1ccc(/C=C/C(=O)Nc2ccccc2C(=O)O)cc1OC` [Tranilast, reference compound], the “Inhibition (%)” value is reported as 0%.

test system: 48-Hours PCA (passive cutaneous anaphylaxis); assay: Test Example 2: Anti-passive cutaneous anaphylaxis (PCA) activity in rats, 48-Hours PCA (Ib compounds); type: in vivo, rat (Wistar strain male); conditions: Rattus norvegicus, po, 20 mg/kg, P.O., 1 hour before the elicitation
Method: as §1, §2, §3, §4, §5
(§6) Rats were sensitized with 35 times dilution of anti DNA-As antiserum administered at two sites in the pre-clipped right dorsal skin. After 48 hours, DNP-As (500 μg in 0.5% Evans blue-physiological saline (1 ml) was administered into caudal vein to elicit the reaction. Then, 30 minutes later, the animals were decapitated, the dorsal skin was peeled, two sensitized areas as well as one control area were cut off and analyzed for Evans blue exudation which was used as an indivative of the reaction according to the method disclosed in Microbiol. Immunol. 22, 89-101 (1978). Thus, cut skins were treated with 1N-KOH (1 ml) and incubated at 37° C. for 16 hours to dissolve the skin tissue. A mixed solution (9 ml) of 0.6N-phosphoric acid-acetone (5: 13) was added and the mixture was centrifuged (300 r.p.m.) for 15 minutes. The supernatant was assayed for absorption at 620 nm and the exudation of Evans blue was determined. Test compounds (I) of the present invention were administered perorally as a suspension in 0.5% tragacanth 1 hour before the elicitation.

Compared with `COc1ccc(-c2csc(NC(=O)c3nnn[nH]3)n2)cc1` [Ib-4], `Cc1ccc(-c2csc(NC(=O)c3nnn[nH]3)n2)cc1` [Ib-5, N-(4-(4-Methylphenyl)-2-thiazolyl)-1H-tetrazole-5-carboxamide] is lower in inhibition in vivo at 20 mg/kg: 92% for the first, 89% for the second.

First: O=C(Nc1nc(-c2ccccc2)cs1)c1nnn[nH]1 [Ib-1, N-(4-phenyl-2-thiazolyl)-1H-tetrazole-5-carboxamide]
Second: O=C(Nc1nc(-c2ccc(Cl)cc2)cs1)c1nnn[nH]1 [Ib-7, N-(4-(4-chlorophenyl)-2-thiazolyl)-1H-tetrazole-5-carboxamide]
The inhibition in vivo at 20 mg/kg of the first is lower: 66% for the first, 70% for the second.

Molecule `Cc1sc(NC(=O)c2nnn[nH]2)nc1-c1ccccc1` [Ib-12, N-(5-methyl-4-phenyl-2-thiazolyl)-1H-tetrazole-5-carboxamide] has an inhibition in vivo at 20 mg/kg of 51%.

same assay, conditions: Rattus norvegicus, po, 30 mg/kg, P.O., 1 hour before the elicitation

Going from `Cc1ccc(-c2csc(C(=O)Nc3nnn[nH]3)n2)cc1` [Ib-13, 4-(4-Methylphenyl)-N-(1H-tetrazole-5-yl)-2-thiazolecarboxamide] to `COc1ccc(-c2csc(C(=O)Nc3nnn[nH]3)n2)cc1` [Ib-14, 4-(4-methoxyphenyl)-N (1H-tetrazole-5-yl)-2-thiazolecarboxamide], the inhibition in vivo at 30 mg/kg falls from 60% to 50%.

same assay, conditions: Rattus norvegicus, po, 50 mg/kg, P.O., 1 hour before the elicitation

In the case of `COc1ccc(/C=C/C(=O)Nc2ccccc2C(=O)O)cc1OC` [Tranilast, reference compound], the inhibition in vivo at 50 mg/kg is reported as 0%.

test system: 48-Hours PCA (passive cutaneous anaphylaxis); assay: Test Example 1: Anti-passive cutaneous anaphylaxis (PCA) activity in rats, 48-Hours PCA (Ia compounds); type: in vivo, rat (Wistar strain male); conditions: Rattus norvegicus, po, 15 mg/kg, perorally, 1 hour before the elicitation
Method: as §1, §2, §3, §4, §5
as §6, with “μg in 0.5 % Evans blue-physiological” for “μg in 0.5% Evans blue-physiological”

First: O=C(Nc1csc(-c2cccnc2)n1)c1nnn[nH]1 [Ia-23, N-(2-(3-Pyridyl)-4-thiazolyl)-1H-tetrazole-5-carboxamide]
Second: Cc1cccc(-c2nc(NC(=O)c3nnn[nH]3)cs2)c1 [Ia-4, N-(2-(3-methylphenyl)-4-thiazolyl)-1H-tetrazole-5-carboxamide]
The inhibition in vivo at 15 mg/kg of the first is higher: 40% for the first, 39% for the second.

First: CC(C)c1ccc(-c2nc(NC(=O)c3nnn[nH]3)cs2)cc1 [Ia-16, N-(2-(4-(1-methylethyl)phenyl)-4-thiazolyl) 1H-tetrazole-5-carboxamide]
Second: O=C(Nc1csc(-c2ccc(Cl)cc2)n1)c1nnn[nH]1 [Ia-15, N-(2-(4-chlorophenyl)-4-thiazolyl)-1H-tetrazole-5-carboxamide]
The inhibition in vivo at 15 mg/kg of the first is lower: 46% for the first, 50% for the second.

First: COc1ccc(-c2nc(NC(=O)c3nnn[nH]3)cs2)cc1 [Ia-8]
Second: CC(C)(C)c1ccc(-c2nc(NC(=O)c3nnn[nH]3)cs2)cc1 [Ia-17, N-(2-(4-(1,1-dimethylethyl)phenyl)-4-thiazolyl)-1H-tetrazole-5-carboxamide]
The inhibition in vivo at 15 mg/kg of the first is higher: 80% for the first, 47% for the second.

First: O=C(Nc1csc(-c2ccc3ccccc3n2)n1)c1nnn[nH]1 [Ia-26, N-(2-(2-quinolyl)-4-thiazolyl)-1H-tetrazole-5-carboxamide]
Second: Cc1ccccc1-c1nc(NC(=O)c2nnn[nH]2)cs1 [Ia-3, N-(2-(2-methylphenyl)-4-thiazolyl)-1H-tetrazole-5-carboxamide]
The inhibition in vivo at 15 mg/kg of the first is lower: 42% for the first, 78% for the second.

First: Cc1nc(NC(=O)c2nnn[nH]2)cs1 [Ia-1, N-(2-Methyl-4-thiazolyl)-1H-tetrazole-5-carboxamide]
Second: O=C(Nc1csc(-c2cccs2)n1)c1nnn[nH]1 [Ia-25, N-(2-(2-thienyl)-4-thiazolyl)-1H-tetrazole-5-carboxamide]
The inhibition in vivo at 15 mg/kg of the first is higher: 60% for the first, 43% for the second.

same assay, conditions: Rattus norvegicus, po, 25 mg/kg, perorally, 1 hour before the elicitation

First: Cc1ccc(-c2nc(NC(=O)c3nnn[nH]3)c(C)s2)cc1 [Ia-19, N-(2-(4-methylphenyl)-5-methyl-4-thiazolyl)-1H-tetrazole-5-carboxamide]
Second: Cc1ccc(-c2nc(NC(=O)c3nnn[nH]3)cs2)cc1 [Ia-5]
The inhibition in vivo at 25 mg/kg of the first is lower: 61% for the first, 90% for the second.

same assay, conditions: Rattus norvegicus, po, 50 mg/kg, 1 hour before the elicitation

In the case of `COc1ccc(/C=C/C(=O)Nc2ccccc2C(=O)O)cc1OC` [Tranilast, reference compound], the inhibition in vivo at 50 mg/kg is reported as 0%.
